Assay results published in PubChem BioAssay AID179 (DTP/NCI, 2004).
“And” between values parts separate entries of the source, which are not always exact repeats. Equal entries are not always repeated. The source made the active and inactive calls.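 The calls were made as follows: active = compounds giving half or more protection of infected cells from virus-caused growth loss, again on retest; inactive = the rest.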 Where a SMILES comes first, the peptide text is derived from it.

Tested on: CEM cells HIV-1 protection, formazan growth assay
Test: NCI AIDS Antiviral Assay
Details: for IC50: measured here: growth of uninfected CEM cells
Outline: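 Five concentrations of each compound were applied to infected and uninfected human CEM cells. Protection from HIV-1 was judged from growth measured with a soluble formazan assay.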

SMILES: O=c1nc2c(c(-c3ccc(Br)cc3)[nH]1)COC/C2=C\c1ccc(Br)cc1
- EC50: > 200 µM
- IC50: 75.9 µM

SMILES: CCOC(OC1=C(C#N)CCC1)C(CC)[Se]c1ccccc1 (configuration not stated)
- EC50: > 70.8 µM
- IC50: 52.5 µM

SMILES: NCCN.NCCN.O=C([O-])CCl.O=C([O-])CCl.[Co+3].[O-][Cl+3]([O-])([O-])[O-]
- outcome: inactive

SMILES: COc1ccc2c(c1)O[C@H]1c3ccc(O)cc3OC[C@@H]21
- outcome: inactive

SMILES: CC(C)(C)NC(=S)N/N=C/c1ccccn1
- EC50: > 0.2 µM
- IC50: 0.0288 µM

SMILES: Cc1nc(Nc2ccc(Cl)cc2)sc1C(=O)NNC(=O)C(=O)NN
- EC50: > 19.5 µM
- IC50: > 19.5 µM

SMILES: S=C(c1c[nH]c2ccccc12)N1CCOCC1
- EC50: > 200 µM
- IC50: > 200 µM

SMILES: CC(=O)N/N=C(/C)c1cccs1
- EC50: > 200 µM
- IC50: > 200 µM

SMILES: CC(C)CCCC(C)[C@H]1CCC2[C@@H]3CCC4C[C@@H](CCC=C(c5cc(Cl)c(O)c(C(=O)NO)c5)c5cc(Cl)c(O)c(C(=O)NO)c5)CC[C@]4(C)C3CC[C@@]21C (some centres not stated)
- EC50: > 200 µM
- IC50: > 200 µM

SMILES: COC(=O)CCCC=C(c1cc(Br)c(OC)c(C(F)(F)F)c1)c1cc(Br)c(OC)c(C(F)(F)F)c1
- EC50: > 200 µM
- IC50: 40.7 µM

SMILES: O=C(Nc1ccccc1)O/N=C1/CCCC/C1=C\c1ccccc1
- EC50: > 42.7 µM
- IC50: 39.8 µM

SMILES: O=C(O)c1nc(-c2ccc(Cl)c(Cl)c2)nc2ccc(Cl)cc12
- outcome: inactive

SMILES: CC(=O)c1cc2ccccc2oc1=O
- EC50: > 138 µM
- IC50: > 138 µM

SMILES: O=C1CCCCC1CN1CCCCC1 (configuration not stated)
- outcome: inactive

SMILES: O=C1NC(=O)C(=Cc2ccccc2Br)C(=O)N1
- EC50: > 229 µM
- outcome: inactive
- IC50: 2.4 µM

SMILES: COc1cc(/C=C(\C#N)c2ccccn2)cc(Br)c1O
- EC50: > 200 µM
- IC50: 28.2 µM

SMILES: CC1(CO)CCC(n2ccc(N)nc2=O)O1 (configuration not stated)
- EC50: 30.9 µM
- IC50: > 200 µM

SMILES: NC/C(=C\C(=O)O)c1ccc(Cl)cc1
- outcome: inactive

SMILES: CC(=O)CC1CCC(=O)/C=C/C(=O)OC(CC(C)=O)CCC(=O)/C=C/C(=O)O1 (configuration not stated)
- EC50: > 200 µM
- IC50: 1.91 µM

SMILES: C[C@@]1(CO)[C@H](O)CC[C@@]2(C)[C@H]1CC[C@H]1C[C@@H]3C[C@@]12CC[C@@]3(O)COC(=O)CN
- EC50: > 575 µM
- IC50: 0.331 µM

SMILES: CCOC(=O)NC(Nc1ccc(C(=O)O)cc1)(C(F)(F)F)C(F)(F)F
- EC50: > 200 µM
- IC50: > 200 µM

SMILES: CCCCCCCCCCCCC(CC)CCCCC(=O)O (configuration not stated)
- outcome: inactive

SMILES: Nc1nc(N)c2ncn(C3C=CC(CO)CC3)c2n1 (configuration not stated)
- EC50: > 200 µM
- IC50: > 200 µM

SMILES: O=C1CCC(=O)N1n1c(Cc2ccc(Cl)cc2)n[nH]c1=O
- EC50: > 200 µM
- IC50: > 200 µM

SMILES: Cn1nc(-c2ccccc2)c(C(=O)/C=C/c2ccccc2)c(N2CCCC2)c1=O
- EC50: 12.6 µM
- IC50: 52.5 µM

SMILES: CN1N=C(c2ccncc2)OC1c1ccc(Cl)c(Cl)c1 (configuration not stated)
- EC50: > 200 µM
- IC50: 85.1 µM

SMILES: O=S(=O)(O)c1cc2cc(S(=O)(=O)O)c(O)cc2cc1O
- outcome: inactive

SMILES: Nc1ccc2c(c1)C1Oc3ccccc3CC1CO2 (configuration not stated)
- EC50: > 200 µM
- IC50: 110 µM

SMILES: CCN(C(=N)C#N)c1ccccc1
- EC50: > 513 µM
- IC50: 302 µM

SMILES: CS(=N)(=O)CCC(N)P(=O)(O)O (configuration not stated)
- EC50: > 200 µM
- IC50: > 200 µM

SMILES: CCC[CH2][Sn]([CH2]CCC)([O]C(=O)c1cccc(F)c1)[O]C(=O)c1cccc(F)c1
- EC50: > 10.2 µM
- IC50: 6.61 µM

SMILES: O=C(O)CCCCCCCCCc1ccccc1
- EC50: > 200 µM
- IC50: 107 µM

SMILES: O=C(Nc1nc2ccc(Cl)cc2[nH]1)c1ccccc1O
- EC50: > 200 µM
- IC50: 12 µM

SMILES: CCN(CC)CCOC(=O)c1ccc(N=NC2Sc3nc4ccccc4n3C2=O)cc1 (configuration not stated)
- outcome: inactive

SMILES: O=C(CCCCCCCCc1ccc(O)cc1)c1c(O)cccc1O
- outcome: inactive

SMILES: Nc1nc(N)c2nc(-c3ccccc3)c(N)nc2n1
- outcome: inactive

SMILES: CN(CCN1C(=O)c2cccc3cc(N)cc(c23)C1=O)CCN1C(=O)c2cccc3cc(N)cc(c23)C1=O
- EC50: > 21.9 µM
- IC50: 0.155 µM

SMILES: COc1ccccc1NC(=O)C(=O)Cc1cnc2ccccc2n1
- EC50: > 209 µM
- IC50: 138 µM

SMILES: CC(Cl)CN1c2ccccc2Sc2ccc(Cl)cc21 (configuration not stated)
- EC50: > 200 µM
- IC50: 132 µM

SMILES: CCOC(=O)/C(=C\c1ccc(OC)cc1)C(C)=O
- EC50: > 275 µM
- IC50: 117 µM

SMILES: CC(N)C(=O)NC(CO)C(=O)NC(Cc1ccc(O)cc1)C(=O)NC(CO)C(=O)NC(C(=O)O)C(C)O (configuration not stated) (H-ASYST-OH; configuration not given here)
- EC50: > 95.5 µM
- IC50: > 95.5 µM

SMILES: Cn1c(N)c(N=Nc2ccc(S(=O)(=O)Nc3nccs3)cc2)c(=O)n(C)c1=O
- outcome: inactive

SMILES: Nc1nc2cc([N+](=O)[O-])cnc2s1
- EC50: > 479 µM
- IC50: 437 µM

SMILES: CCOC(=O)Cn1sc2ncc([N+](=O)[O-])cc2c1=O
- EC50: > 13.5 µM
- IC50: 8.91 µM

SMILES: CN1C(=O)c2ccccc2C1(N)c1ccccc1 (configuration not stated)
- EC50: 661 µM
- IC50: 871 µM

SMILES: O=S(=O)(NC1OCCCC1I)c1ccccc1 (configuration not stated)
- EC50: > 200 µM
- IC50: > 200 µM

SMILES: COC(=O)NC1C(C)OC(OC2C/C=C(/C)C3C=CC4C(OC5CC(OC6CCC(OC7CC(O)C(OC8CCC(O)C(C)O8)C(C)O7)C(C)O6)C(OC(C)=O)C(C)O5)C(C)CC(C)C4C3(C)/C(O)=C3/C(=O)OC4(CC(C=O)=CC(O)C4/C=C\2C)C3=O)CC1(C)[N+](=O)[O-] (configuration not stated)
- EC50: > 186 µM
- IC50: 0.191 µM

SMILES: CC(C)S(=O)(=O)ON1C(=O)c2ccc(N(C)C)cc2C1=O
- EC50: > 83.2 µM
- IC50: > 83.2 µM

SMILES: C=CCC12CC(C)OC1=Nc1ccccc1NC2=O (configuration not stated)
- EC50: > 200 µM
- IC50: > 200 µM

SMILES: CCOc1ccc(NC(=O)CC2Sc3ccccc3NC2=O)cc1 (configuration not stated)
- EC50: > 11 µM
- IC50: > 11 µM

SMILES: COC(=O)C1=C(C(=O)OC)C23CC4CCC2(C(=O)C1O3)C4(C)C (configuration not stated)
- EC50: > 251 µM
- IC50: 16.6 µM

SMILES: CCc1ccccc1NC(=O)C1=C(C)NC(C)=C(C(=O)Nc2ccccc2CC)C1c1cccc([N+](=O)[O-])c1
- EC50: > 19.1 µM
- IC50: > 19.1 µM

SMILES: COc1ccc(Cc2c3cc(OC)c(OC)cc3cc[n+]2C)cc1
- EC50: > 550 µM
- IC50: 107 µM

SMILES: Cc1cc(C)n(C(=C(C(Cl)=C(Cl)Cl)[N+](=O)[O-])n2nc(C)cc2C)n1
- EC50: > 200 µM
- IC50: 4.37 µM

SMILES: c1ccc(C2=C(c3ccccc3)CSSC2)cc1
- EC50: > 69.2 µM
- IC50: > 69.2 µM

SMILES: CN(C)CCOC1(Cc2ccc(F)cc2)CCC(C(C)(C)C)CC1 (configuration not stated)
- EC50: > 200 µM
- IC50: 3.89 µM and 3.98 µM

SMILES: Cc1ccccc1NC(=O)C(=O)C(C#N)c1ccc(Cl)cc1 (configuration not stated)
- EC50: > 12 µM
- IC50: > 12 µM

SMILES: CN(C)c1ccc2c(c1)-c1cc(N(C)C)ccc1C2=CC=C(C#N)C#N
- EC50: > 4.27 µM
- IC50: > 4.27 µM

SMILES: CN(O)C1CC(=O)OC1CO[Si](C)(C)C(C)(C)C (configuration not stated)
- EC50: > 200 µM
- IC50: 51.3 µM

SMILES: COC(=O)c1cc(=O)nc2cc3cccccc3n12
- outcome: inactive

SMILES: NS(=O)(=O)c1ccc(NC(=O)c2cccn3c(=O)c4ccccc4nc23)cc1
- outcome: inactive

SMILES: COc1cc(N=Nc2ccccc2)cc(/C=N/NC(=O)c2cccnc2)c1O
- EC50: > 661 µM
- IC50: 60.3 µM

SMILES: CC(C)(Oc1ccc(C(=O)c2ccc(Cl)cc2)cc1Cl)C(=O)N1CCN(c2ccccc2)CC1
- EC50: > 20 µM
- IC50: > 20 µM

SMILES: Cc1cc2c(cc1CO)N1Cc3cc(C)c(CO)cc3N(C2)C1
- outcome: inactive

SMILES: C/C=C1\CN2CCc3c([nH]c4ccccc34)C2CC1CC(=O)N(C)C (configuration not stated)
- EC50: > 200 µM
- IC50: > 200 µM
